Assay results taken from US4656161A, “Increasing the enteral absorbability of heparin or heparinoids” (BASF Aktiengesellschaft, priority 1983, dated 1987).
Blank lines part the entries; values can stand above or below the substance they belong to.

Experiments:
[1] = Heparin/heparinoid concentration in blood after oral administration of capsules to beagles (citrated plasma, chromogenic substrate); assay type: in vivo, beagle dogs; conditions: for heparin or heparinoid concentration in the blood, without surfactant (in words): without the addition of a surfactant; for heparin level in the blood, without surfactant: in the absence of added surfactant
Experimental: (§1) A. 2 of the capsules obtained as described in Examples 1a-1d or 3a-3b (total dose 28,000 IU of heparin or 700 mg of heparinoid) were administered orally to each of a number of beagles weighing about 7 kg. The concentration of active compound in the blood of the dogs was determined before and 30 minutes, 1 hour and 2, 3, 5, 8, 14 and 24 hours after the administration of heparin. The heparin was determined in citrated plasma, using a chromogenic substrate (cf. Thromb. Res. 8 (1976), 413 and Volume 2 of Reports, Thrombosis and Hemostasis Congress, Munster, 1982, Schattauer Verlag, Stuttgart, pages 238-246). The thrombin time was also determined (cf. Kleiner Gerinnungstatus, published by Behringwerke, 1982, page 40). The heparin or heparinoid concentration (c) in the blood and the quotient T of the thrombin time of the treated animals to that of the untreated animals reached their highest values after 2 hours.
(§2) Since, in contrast to heparin, heparinoids prolong the bleeding time (in this case the thrombin time) only slightly, if at all, they are not standardized on the basis of anticoagulant activity.

[2] = tested on: thrombin time; assay: Thrombin time after oral administration of capsules to beagles; assay type: in vivo, beagle dogs; conditions: without the addition of a surfactant
Experimental: as §1, §2

Substance: heparin [heparin used in Example 1b]
heparin or heparinoid concentration in the blood, without surfactant (in words) [1]: did not result in a measurable heparin or heparinoid concentration in the blood
thrombin time, without surfactant (in words) [2]: did not change the thrombin time

Substance: mucopolysaccharide polysulfate [heparinoid used in Example 3b]
heparin or heparinoid concentration in the blood, without surfactant (in words) [1]: did not result in a measurable heparin or heparinoid concentration in the blood
thrombin time, without surfactant (in words) [2]: did not change the thrombin time

heparin level in the blood, without surfactant [1]: 0.25 IU/ml
Substance: heparin [heparin used in Example 1d]
thrombin time, without surfactant (in words) [2]: no change in the thrombin time

Substance: heparin [heparin used in Example 1a]
heparin or heparinoid concentration in the blood, without surfactant (in words) [1]: did not result in a measurable heparin or heparinoid concentration in the blood
thrombin time, without surfactant (in words) [2]: did not change the thrombin time

Substance: sodium pentosan polysulfate [heparinoid used in Example 3a]
heparin or heparinoid concentration in the blood, without surfactant (in words) [1]: did not result in a measurable heparin or heparinoid concentration in the blood
thrombin time, without surfactant (in words) [2]: did not change the thrombin time

heparin level in the blood, without surfactant [1]: 0.15 IU/ml
Substance: heparin [heparin used in Example 1c]
thrombin time, without surfactant (in words) [2]: no change in the thrombin time
